Reference: patent US9211310B2, “Use of a Chinese medicine composition in preparing medicaments for treating secondary prevention of myocardial infarction” (TASLY PHARMACEUTICAL GROUP CO., LTD, priority 2010, dated 2015)

System: patients after acute myocardial infarction
Assay: Angina pectoris score, total and single (frequency/attack times, duration, pain degree, dose of nitroglycerin), same clinical trial
Format: in vivo, human
Set-up: total angina pectoris score, Md / total angina pectoris score, Mean: scale not given here
Conditions: for change of attack times score, patients (%): Follow-up baseline
Text: In order to better understand the present invention, a multi-center, randomized, double-blind, double-dummy and positive drug controlled trial had been conducted. 3508 patients who were in accordance with the diagnostic standards of AMI for 28 days to 2 years and differentiated as Qi deficiency and blood stagnation syndrome by TCM were studied. 0.5 g Chinese medicine composition prepared by the method of EXAMPLE 1 (Coded as QSYQ) was administrated half an hour after meal, 3 times per day. Aspirine was used as a positive drug. The patients were treated for 1 year and observed for 6 months.
They included the overall survival time, angina pectoris score, TCM symptom score and life quality score, where angina pectoris score, TCM symptom score and life quality score were evaluated at randomization, in 1st, 3rd, 6th, 9th, 12th month after treatment and 18th month after follow-up.
(§1) Total angina pectoris score was described on every observation period and the change of observation in comparison with baseline. T-test or Wilcoxon rank sum test were used for inter-group comparison. Grade of total score was evaluated on every observation and Wilcoxon rank sum test was used for inter-group comparison. T-test and Pairing signed rank sum test were used for analyzing the change of total score on every observation between groups in comparison with the baseline.
(§2) Single angina pectoris score was depicted on every observation time-point and the change of observation in comparison with baseline. Wilcoxon rank sum test was used for inter-group comparison. Pairing signed rank sum test was used for analyzing the change of total score on every observation between groups in comparison with the baseline.
as §1, with “comparison with the baseline. T-test” for “comparison with baseline. T-test”
as §2, with “described” for “depicted”

[1] = FAS, 12 months after treatment-baseline
[2] = PP, 1 month after treatment-baseline
[3] = PP, 3 months after treatment-baseline

CC(=O)Oc1ccccc1C(=O)O [Control group, aspirine]
change of total angina pectoris score, Md [1]: −2.00
change of total angina pectoris score, Mean [1]: −3.28
patients with change of dose of nitroglycerin score 0 (%) [1]: (65.55%)
patients with change of dose of nitroglycerin score 1 (%) [1]: (0.52%)
patients with change of dose of nitroglycerin score 2 (%) [1]: (3.97%)
patients with change of dose of nitroglycerin score 4 (%) [1]: (0.40%)
patients with change of dose of nitroglycerin score 6 (%) [1]: (0.35%)
patients with change of dose of nitroglycerin score −1 (%) [1]: (0.52%)
patients with change of dose of nitroglycerin score −2 (%) [1]: (21.77%)
patients with change of dose of nitroglycerin score −3 (%) [1]: (0.06%)
patients with change of dose of nitroglycerin score −4 (%) [1]: (4.95%)
patients with change of dose of nitroglycerin score −5 (%) [1]: (0.06%)
patients with change of dose of nitroglycerin score −6 (%) [1]: (1.84%)
distribution of total angina pectoris score: Medium, number of patients (FAS, Baseline): 608
distribution of total angina pectoris score: Medium, percentage of patients (FAS, Baseline): (34.90%)
distribution of total angina pectoris score: Mild, number of patients (FAS, Baseline): 1086
distribution of total angina pectoris score: Mild, percentage of patients (FAS, Baseline): (62.34%)
distribution of total angina pectoris score: Severe, number of patients (FAS, Baseline): 48
distribution of total angina pectoris score: Severe, percentage of patients (FAS, Baseline): (2.76%)
total angina pectoris score, Md (FAS, Baseline): 8.00
total angina pectoris score, Mean (FAS, Baseline): 7.12
distribution of total angina pectoris score: Medium, number of patients (FAS, Follow-up): 199
distribution of total angina pectoris score: Medium, percentage of patients (FAS, Follow-up): (13.79%)
distribution of total angina pectoris score: Mild, number of patients (FAS, Follow-up): 1243
distribution of total angina pectoris score: Mild, percentage of patients (FAS, Follow-up): (86.14%)
distribution of total angina pectoris score: Severe, number of patients (FAS, Follow-up): 1
distribution of total angina pectoris score: Severe, percentage of patients (FAS, Follow-up): (0.07%)
patients with dose of nitroglycerin score 0 (%) (FAS, Follow-up): (74.24%)
patients with dose of nitroglycerin score 1 (%) (FAS, Follow-up): (0.90%)
patients with dose of nitroglycerin score 2 (%) (FAS, Follow-up): (23.19%)
patients with dose of nitroglycerin score 4 (%) (FAS, Follow-up): (1.04%)
patients with dose of nitroglycerin score 6 (%) (FAS, Follow-up): (0.63%)
total angina pectoris score, Md (FAS, Follow-up): 0.00
total angina pectoris score, Mean (FAS, Follow-up): 3.59
change of total angina pectoris score, Md (FAS, Follow-up-baseline): −2.00
change of total angina pectoris score, Mean (FAS, Follow-up-baseline): −3.49
patients with change of dose of nitroglycerin score 0 (%) (FAS, Follow-up-baseline): (64.39%)
patients with change of dose of nitroglycerin score 1 (%) (FAS, Follow-up-baseline): (0.28%)
patients with change of dose of nitroglycerin score 2 (%) (FAS, Follow-up-baseline): (4.04%)
patients with change of dose of nitroglycerin score 4 (%) (FAS, Follow-up-baseline): (0.28%)
patients with change of dose of nitroglycerin score 6 (%) (FAS, Follow-up-baseline): (0.21%)
patients with change of dose of nitroglycerin score −1 (%) (FAS, Follow-up-baseline): (0.42%)
patients with change of dose of nitroglycerin score −2 (%) (FAS, Follow-up-baseline): (21.81%)
patients with change of dose of nitroglycerin score −3 (%) (FAS, Follow-up-baseline): (0.14%)
patients with change of dose of nitroglycerin score −4 (%) (FAS, Follow-up-baseline): (6.41%)
patients with change of dose of nitroglycerin score −5 (%) (FAS, Follow-up-baseline): (0.14%)
patients with change of dose of nitroglycerin score −6 (%) (FAS, Follow-up-baseline): (1.88%)
change of attack times score, patients (%) (change 0, FAS): (44.70%)
change of attack times score, patients (%) (change 0, PP): (44.46%)
change of attack times score, patients (%) (change 1, FAS): (1.94%)
change of attack times score, patients (%) (change 1, PP): (1.99%)
change of attack times score, patients (%) (change 2, FAS): (1.73%)
change of attack times score, patients (%) (change 2, PP): (1.70%)
change of attack times score, patients (%) (change 4, FAS): (0.14%)
change of attack times score, patients (%) (change 4, PP): (0.14%)
change of attack times score, patients (%) (change −1, FAS): (22.52%)
change of attack times score, patients (%) (change −1, PP): (22.44%)
change of attack times score, patients (%) (change −2, FAS): (22.73%)
change of attack times score, patients (%) (change −2, PP): (22.87%)
change of attack times score, patients (%) (change −3, FAS): (2.01%)
change of attack times score, patients (%) (change −3, PP): (2.06%)
change of attack times score, patients (%) (change −4, FAS): (3.60%)
change of attack times score, patients (%) (change −4, PP): (3.69%)
change of attack times score, patients (%) (change −5, FAS): (0.21%)
change of attack times score, patients (%) (change −5, PP): (0.21%)
change of attack times score, patients (%) (change −6, FAS): (0.42%)
change of attack times score, patients (%) (change −6, PP): (0.43%)
attack times score, patients (%) (Follow-up, score 0, FAS): (53.64%)
attack times score, patients (%) (Follow-up, score 0, PP): (53.48%)
attack times score, patients (%) (Follow-up, score 1, FAS): (22.80%)
attack times score, patients (%) (Follow-up, score 1, PP): (22.87%)
attack times score, patients (%) (Follow-up, score 2, FAS): (22.94%)
attack times score, patients (%) (Follow-up, score 2, PP): (23.01%)
attack times score, patients (%) (Follow-up, score 4, FAS): (0.62%)
attack times score, patients (%) (Follow-up, score 4, PP): (0.64%)
distribution of total angina pectoris score: Medium, number of patients (PP, 1 month after treatment): 434
distribution of total angina pectoris score: Medium, percentage of patients (PP, 1 month after treatment): (29.21%)
distribution of total angina pectoris score: Mild, number of patients (PP, 1 month after treatment): 1030
distribution of total angina pectoris score: Mild, percentage of patients (PP, 1 month after treatment): (69.31%)
distribution of total angina pectoris score: Severe, number of patients (PP, 1 month after treatment): 22
distribution of total angina pectoris score: Severe, percentage of patients (PP, 1 month after treatment): (1.48%)
patients with dose of nitroglycerin score 0 (%) (PP, 1 month after treatment): (59.61%)
patients with dose of nitroglycerin score 1 (%) (PP, 1 month after treatment): (0.27%)
patients with dose of nitroglycerin score 2 (%) (PP, 1 month after treatment): (29.40%)
patients with dose of nitroglycerin score 4 (%) (PP, 1 month after treatment): (7.48%)
patients with dose of nitroglycerin score 6 (%) (PP, 1 month after treatment): (3.24%)
total angina pectoris score, Md (PP, 1 month after treatment): 6.00
total angina pectoris score, Mean (PP, 1 month after treatment): 5.95
change of total angina pectoris score, Md [2]: 0.00
change of total angina pectoris score, Mean [2]: −1.22
patients with change of dose of nitroglycerin score 0 (%) [2]: (80.36%)
patients with change of dose of nitroglycerin score 1 (%) [2]: (0.20%)
patients with change of dose of nitroglycerin score 2 (%) [2]: (3.78%)
patients with change of dose of nitroglycerin score 4 (%) [2]: (1.01%)
patients with change of dose of nitroglycerin score 6 (%) [2]: (0.27%)
patients with change of dose of nitroglycerin score −2 (%) [2]: (11.54%)
patients with change of dose of nitroglycerin score −4 (%) [2]: (2.29%)
patients with change of dose of nitroglycerin score −6 (%) [2]: (0.54%)
distribution of total angina pectoris score: Medium, number of patients (PP, 3 months after treatment): 363
distribution of total angina pectoris score: Medium, percentage of patients (PP, 3 months after treatment): (24.64%)
distribution of total angina pectoris score: Mild, number of patients (PP, 3 months after treatment): 1098
distribution of total angina pectoris score: Mild, percentage of patients (PP, 3 months after treatment): (74.54%)
distribution of total angina pectoris score: Severe, number of patients (PP, 3 months after treatment): 12
distribution of total angina pectoris score: Severe, percentage of patients (PP, 3 months after treatment): (0.81%)
patients with dose of nitroglycerin score 0 (%) (PP, 3 months after treatment): (62.95%)
patients with dose of nitroglycerin score 1 (%) (PP, 3 months after treatment): (0.75%)
patients with dose of nitroglycerin score 2 (%) (PP, 3 months after treatment): (29.10%)
patients with dose of nitroglycerin score 4 (%) (PP, 3 months after treatment): (4.96%)
patients with dose of nitroglycerin score 6 (%) (PP, 3 months after treatment): (2.24%)
total angina pectoris score, Md (PP, 3 months after treatment): 6.00
total angina pectoris score, Mean (PP, 3 months after treatment): 5.32
change of total angina pectoris score, Md [3]: 0.00
change of total angina pectoris score, Mean [3]: −1.85
patients with change of dose of nitroglycerin score 0 (%) [3]: (5.05%)
patients with change of dose of nitroglycerin score 1 (%) [3]: (0.20%)
patients with change of dose of nitroglycerin score 2 (%) [3]: (3.75%)
patients with change of dose of nitroglycerin score 4 (%) [3]: (0.55%)
patients with change of dose of nitroglycerin score 6 (%) [3]: (0.34%)
patients with change of dose of nitroglycerin score −1 (%) [3]: (0.34%)
patients with change of dose of nitroglycerin score −2 (%) [3]: (15.81%)
patients with change of dose of nitroglycerin score −4 (%) [3]: (3.14%)
patients with change of dose of nitroglycerin score −5 (%) [3]: (0.14%)
